Some results are limits rather than exact numbers.

For the test, the target named is T1, Itk (Homo sapiens, UniProt Q08881).
T1 sequence (Q08881 1-620): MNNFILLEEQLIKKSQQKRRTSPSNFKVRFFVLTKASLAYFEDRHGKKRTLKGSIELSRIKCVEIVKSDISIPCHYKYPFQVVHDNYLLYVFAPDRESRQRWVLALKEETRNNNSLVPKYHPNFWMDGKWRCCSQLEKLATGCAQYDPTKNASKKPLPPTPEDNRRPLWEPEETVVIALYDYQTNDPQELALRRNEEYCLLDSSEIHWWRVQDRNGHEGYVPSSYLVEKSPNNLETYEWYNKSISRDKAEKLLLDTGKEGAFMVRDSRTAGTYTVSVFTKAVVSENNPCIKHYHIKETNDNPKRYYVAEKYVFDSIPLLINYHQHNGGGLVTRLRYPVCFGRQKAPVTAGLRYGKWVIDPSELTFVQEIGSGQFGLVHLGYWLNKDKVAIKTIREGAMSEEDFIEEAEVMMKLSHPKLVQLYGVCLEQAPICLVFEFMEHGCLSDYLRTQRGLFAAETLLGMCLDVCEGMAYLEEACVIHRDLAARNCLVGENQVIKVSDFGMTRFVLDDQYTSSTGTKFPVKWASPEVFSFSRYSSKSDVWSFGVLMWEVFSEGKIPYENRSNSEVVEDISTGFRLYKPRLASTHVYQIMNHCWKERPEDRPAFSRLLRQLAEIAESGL
The experiment in a line: Itk inhibition assay: spectrophotometric coupled enzyme (Method C). The following applies: 100 μM ATP, read-out: Ki in the standard coupled enzyme assay (Method C). The format is biochemical. On the procedure: The compounds of the present invention were evaluated as inhibitors of human Itk kinase using either a radioactivity-based, spectrophotometric or alphascreen assay.
Compounds were screened for their ability to inhibit Itk using a standard coupled enzyme assay (Fox et al., Protein Sci., (1998) 7, 2249).
Assays were carried out in a mixture of 20 mM MOPS (pH 7.0), 10 mM MgCl2, 0.1% BSA, 1 mM DTT, 2.5 mM phosphoenolpyruvate, 300 μM NADH, 30 μg/ml pyruvate kinase and 10 μg/ml lactate dehydrogenase. Final substrate concentrations in the assay were 100 μM ATP (Sigma Chemicals) and 3 μM peptide (Biotinylated SAM68 Δ332-443). Assays were carried out at 25° C. and in the presence of 10 nM Itk.
An assay stock buffer solution was prepared containing all of the reagents listed above, with the exception of ATP and the test compound of interest. 60 μl of the stock solution was placed in a 96 well plate followed by addition of 2 μl of DMSO stock containing serial dilutions of the test compound (typically starting from a final concentration of 15 μM). The plate was preincubated for 10 minutes at 25° C. and the reaction initiated by addition of 5 μl of ATP. Initial reaction rates were determined with a Molecular Devices SpectraMax Plus plate reader over a 10 minute time course. IC50 and Ki data were calculated from non-linear regression analysis using the Prism software package (GraphPad Prism version 3.0cx for Macintosh, GraphPad Software, San Diego Calif., USA).
What is called Ki is a dissociation constant, usually derived from enzyme kinetics or from competition with a known ligand. As to `CS(=O)(=O)c1cccc(Nc2ncc3ccc4sc(C(=O)N5CCNCC5)cc4c3n2)c1` [Compound V-100], the Ki was below 1000 nM.

For the compound `COC[C@H](C)NC(=O)c1cc2c(ccc3cnc(Nc4cccc(S(C)(=O)=O)c4)nc32)s1` [Compound V-153], the Ki was below 1000 nM.

Turning to `Cc1cscc1-c1cccc(Nc2ncc3ccc4sc(C(=O)N5CCNCC5)cc4c3n2)c1` [Compound V-96], the Ki is below 1000 nM.

Turning to `CS(=O)(=O)c1cccc(Nc2ncc3ccc4sc(C(=O)NC5CCC(O)CC5)cc4c3n2)c1` (stereo not shown) [Compound V-151], the Ki is below 1000 nM.

In the case of `O=C(c1cc2c(ccc3cnc(Nc4ccc(N5CCOCC5)cc4)nc32)s1)N1CCNCC1` [Compound V-98], the Ki is below 1000 nM.

For the compound `O=C(c1cc2c(ccc3cnc(Nc4cccc(-c5ccsc5Cl)c4)nc32)s1)N1CCNCC1` [Compound V-97], the Ki was below 1000 nM.

With `CC(C)N(C)C(=O)c1cc2c(ccc3cnc(Nc4cccc(S(C)(=O)=O)c4)nc32)s1` [Compound V-140], the Ki was below 1000 nM.

For `CS(=O)(=O)c1cccc(Nc2ncc3ccc4sc(C(=O)N5CCC[C@H]5CO)cc4c3n2)c1` [Compound V-142], the inhibitory constant (Ki) is below 1000 nM.

Take `CC(C)c1cccc(Nc2ncc3ccc4sc(C(=O)N5CCC(N)C5)cc4c3n2)c1` (stereo not shown) [Compound V-82]: the Ki is below 1000 nM.

With `Cc1ccsc1-c1cccc(Nc2ncc3ccc4sc(C(=O)N5CCNCC5)cc4c3n2)c1` [Compound V-95], the Ki is below 1000 nM.

`NC1CCN(C(=O)c2nc3ccc4cnc(Nc5cccc(S(N)(=O)=O)c5)nc4c3s2)CC1` [Compound V-176]: the Ki is below 1000 nM.

`CC1CN(C(=O)c2cc3c(ccc4cnc(Nc5cccc(S(C)(=O)=O)c5)nc43)s2)CC(C)N1` (stereo not shown) [Compound V-137]: the Ki is below 1000 nM.

Turning to `O=C(c1cc2c(ccc3cnc(NCCc4cccc(Cl)c4)nc32)s1)N1CCNCC1` [Compound V-167], the Ki was below 1000 nM.

On to `O=C(c1cc2c(ccc3cnc(NCCc4ccccn4)nc32)s1)N1CCNCC1` [Compound V-179], for which the Ki was below 1000 nM.

For the compound `CC(C)(C)c1cccc(Nc2ncc3ccc4sc(C(=O)N5CC[C@@H](N)C5)cc4c3n2)c1` [Compound V-111], the Ki was below 1000 nM.

As to `NC1CCN(C(=O)c2cc3c(ccc4cnc(Nc5cccc(Cc6ccccc6)c5)nc43)s2)C1` (stereo not shown) [Compound V-88], the Ki was below 1000 nM.

Turning to `O=C(c1cc2c(ccc3cnc(Nc4ccc(N5CCNCC5)cc4)nc32)s1)N1CCNCC1` [Compound V-115], the Ki is below 1000 nM.

`CC(=O)N1CCC(CNC(=O)c2cc3c(ccc4cnc(Nc5cccc(C(C)(C)C)c5)nc43)s2)C1` (stereo not shown) [Compound V-119]: the Ki is below 1000 nM.

Take `O=C(c1cc2c(ccc3cnc(NC4Cc5ccccc5C4)nc32)s1)N1CCNCC1` [Compound V-172]: the Ki was below 1000 nM.

As for `CC(=O)N1CCc2ccc(Nc3ncc4ccc5sc(C(=O)N6CCNCC6)cc5c4n3)cc21` [Compound V-166], the Ki is below 1000 nM.

As to `CS(=O)(=O)c1cccc(Nc2ncc3ccc4sc(C(=O)N5CCC(O)C5)cc4c3n2)c1` (stereo not shown) [Compound V-156], the Ki was below 1000 nM.

`CC(C)(C)OC(=O)NC1CCN(C(=O)c2cc3c(ccc4cnc(Nc5cccc(F)c5)nc43)s2)C1` (stereo not shown) [Compound V-63]: the Ki is below 1000 nM.

`CS(=O)(=O)c1cccc(Nc2ncc3ccc4sc(C(=O)N5CCCNCC5)cc4c3n2)c1` [Compound V-136]: the Ki is below 1000 nM.

Take `CC(=O)N1CCC(CNC(=O)c2cc3c(ccc4cnc(Nc5cccc(C(C)(C)C)c5)nc43)s2)CC1` [Compound V-118]: the Ki was below 1000 nM.

Regarding `O=C(c1cc2c(ccc3cnc(N[C@H]4C[C@@H]4c4ccccc4)nc32)s1)N1CCNCC1` [Compound V-127], the Ki is below 1000 nM.

With `CS(=O)(=O)c1cccc(Nc2ncc3ccc4sc(C(=O)N5CCC(O)CC5)cc4c3n2)c1` [Compound V-154], the Ki is below 1000 nM.

In the case of `CC(=O)NCCNC(=O)c1cc2c(ccc3cnc(Nc4cccc(S(C)(=O)=O)c4)nc32)s1` [Compound V-135], the Ki was below 1000 nM.

Take `O=C(c1cc2c(ccc3cnc(NCCc4cccnc4)nc32)s1)N1CCNCC1` [Compound V-173]: the inhibitory constant (Ki) is below 1000 nM.

Consider `CS(=O)(=O)c1cccc(Nc2ncc3ccc4sc(C(=O)N5CCC(C(N)=O)CC5)cc4c3n2)c1` [Compound V-144], for which the Ki is below 1000 nM.

With `COC[C@H]1CCCN1C(=O)c1cc2c(ccc3cnc(Nc4cccc(S(C)(=O)=O)c4)nc32)s1` [Compound V-155], the Ki is below 1000 nM.

For `CC(C)(C)OC(=O)NC1CCN(C(=O)c2cc3c(ccc4cnc(Nc5cccc(-c6ccccc6)c5)nc43)s2)C1` (stereo not shown) [Compound V-60], the Ki was below 1000 nM.

Turning to `O=C(c1cc2c(ccc3cnc(NCCc4ccc(O)cc4)nc32)s1)N1CCNCC1` [Compound V-182], the Ki was below 1000 nM.

As for `CS(=O)(=O)c1cccc(Nc2ncc3ccc4sc(C(=O)NC5CCOCC5)cc4c3n2)c1` [Compound V-150], the Ki was below 1000 nM.

For the compound `CN1CCN(C(=O)c2cc3c(ccc4cnc(Nc5cccc(Oc6ccccc6)c5)nc43)s2)CC1` [Compound V-83], the Ki is below 1000 nM.

For the compound `CN1CCN(C(=O)c2cc3c(ccc4cnc(Nc5cccc(-c6ccccc6)c5)nc43)s2)CC1` [Compound V-59], the Ki was below 1000 nM.

Consider `CC(=O)NC1CCN(C(=O)c2cc3c(ccc4cnc(Nc5cccc(S(C)(=O)=O)c5)nc43)s2)C1` (stereo not shown) [Compound V-148], for which the Ki is below 1000 nM.

Consider `CN(C)C(=O)c1cc2c(ccc3cnc(Nc4cccc(C(C)(C)C)c4)nc32)s1` [Compound V-104], for which the Ki was below 1000 nM.

Regarding `O=C(c1cc2c(ccc3cnc(Nc4cccc(Oc5ccccc5)c4)nc32)s1)N1CCNCC1` [Compound V-84], the Ki was below 1000 nM.

Consider `COCCN(C)C(=O)c1cc2c(ccc3cnc(Nc4cccc(S(C)(=O)=O)c4)nc32)s1` [Compound V-139], for which the Ki is below 1000 nM.

On to `CC(C)(C)c1cccc(Nc2ncc3ccc4sc(C(=O)N5CC[C@H](N)C5)cc4c3n2)c1` [Compound V-110], for which the Ki is below 1000 nM.

`CC(C)(C)c1cccc(Nc2ncc3ccc4sc(C(=O)N5CCOCC5)cc4c3n2)c1` [Compound V-55]: the Ki is below 1000 nM.

For the compound `CC(C)(C)c1cccc(Nc2ncc3ccc4sc(C(=O)N5CCCNCC5)cc4c3n2)c1` [Compound V-109], the Ki was below 1000 nM.

Regarding `NC1CCN(C(=O)c2cc3c(ccc4cnc(Nc5cccc(Oc6ccccc6)c5)nc43)s2)C1` (stereo not shown) [Compound V-85], the Ki is below 1000 nM.

In the case of `CS(=O)(=O)c1cccc(Nc2ncc3ccc4sc(C(=O)N5CCCC5)cc4c3n2)c1` [Compound V-130], the Ki was below 1000 nM.

Turning to `COc1ccc(CCNc2ncc3ccc4sc(C(=O)N5CCNCC5)cc4c3n2)cc1` [Compound V-175], the Ki is below 1000 nM.

With `CC(=O)N1CCN(C(=O)c2cc3c(ccc4cnc(Nc5cccc(C(C)(C)C)c5)nc43)s2)CC1` [Compound V-105], the Ki was below 1000 nM.

In the case of `CC(C)(C)c1cccc(Nc2ncc3ccc4sc(C(=O)NCC5CCNC5)cc4c3n2)c1` (stereo not shown) [Compound V-108], the inhibition constant Ki was below 1000 nM.

Take `CC(C)Oc1cccc(Nc2ncc3ccc4sc(C(=O)N5CCC(N)C5)cc4c3n2)c1` (stereo not shown) [Compound V-103]: the Ki was below 1000 nM.

Consider `CC(=O)Nc1cccc(Nc2ncc3ccc4sc(C(=O)N5CCOCC5)cc4c3n2)c1` [Compound V-68], for which the inhibition constant Ki was below 1000 nM.

The values above are taken from patent US7700609B2, “Compositions useful as inhibitors of protein kinases” (Vertex Pharmaceuticals Incorporated, priority 2003, dated 2010).
